# Assay results taken from PMC12752606, “METTL10‐Mediated PIAS3 Methylation Links Purine Metabolism to Gastric Cancer Progression” (Advanced Science, 2025).
# Legend:
# MKN45 xenografts = assay: MKN45 subcutaneous xenograft model; format: in vivo, BALB/c nude mice; settings: 20 or 40 mg/kg i.p. once daily for 2 weeks
# Procedure: For the subcutaneous tumor model, 5 × 10⁶ MKN45 cells suspended in 100 µL of sterile PBS were injected subcutaneously into the flanks of BALB/c nude mice. When tumor volumes reached approximately 50 mm^3, mice were randomized into three groups (Vehicle control, LZQ‐02‐023‐01 at 20 mg/kg or 40 mg/kg, n = 10 per group). All treatments were administered via intraperitoneal injection once daily for 14 consecutive days. Tumor volumes were measured every 2 days using calipers and calculated using the formula: volume = [length × (width[2])]/2. Mice were sacrificed on day 24 for endpoint analyses. For genetically engineered mouse models (GEMMs), 25‐week‐old K19‐C2mE mice were randomized into Vehicle control (n = 8) and LZQ‐02‐023‐01 treatment (40 mg/kg, n = 8) groups. Both groups received daily intraperitoneal injections for 28 consecutive days. Similarly, 8‐week‐old Cldn18‐AT mice were induced with tamoxifen (100 mg/kg, T5648, Sigma) and, 2 weeks post‐induction, randomized into Vehicle (n = 6) and LZQ‐02‐023‐01 (40 mg/kg, n = 6) treatment groups. Treatments were administered daily via intraperitoneal injection for 28 days.
# Paraffin sections were initially placed in an oven at 65 °C for 30 min to melt the paraffin. The slides were then immersed in two consecutive xylene baths for 10 min each to dewax the tissue, followed by hydration through a series of graded ethanol solutions. […]
# PRMT5 = PRMT5 (Homo sapiens, UniProt O14744); assay: Off-target methyltransferase profiling (MTase-Glo); format: biochemical
# Procedure: (§1) To evaluate the off‐target effects of LZQ‐02‐023‐01 on methyltransferase activity, a panel of enzymes was assessed using the MTase‐Glo Methyltransferase Assay (Promega), following the manufacturer's instructions. The assay was performed by ICE Bioscience Inc. Briefly, LZQ‐02‐023‐01 was serially diluted 4‐fold in DMSO to generate a 10‐point concentration gradient, and the resulting solutions were dispensed into 384‐well white assay plates using an Echo acoustic liquid handler (Labcyte). Plates were centrifuged at 1000 rpm for 1 min to ensure even compound distribution. Following a 10‐min preincubation at 25 °C, 2 µL of a substrate solution containing S‐adenosylmethionine (SAM) and the specific methyltransferase substrate (Table S7, Supporting Information) was added to each well. After a brief centrifugation, plates were incubated at 25 °C for 180 min to allow the enzymatic methylation reaction to proceed. Subsequently, 1 µL of MTase‐Glo reagent was added, followed by centrifugation and incubation at 25 °C for 45 min. Then, 5 µL of MTase‐Glo detection solution was introduced into each well, and the plates were incubated for an additional 45 min at 25 °C after centrifugation.
# (§2) Luminescence signals were directly proportional to methyltransferase activity, were recorded using a microplate reader (BMG LABTECH). Percent inhibition was calculated by normalizing luminescence intensities of compound‐treated wells to DMSO‐treated controls, and IC50 values were calculated using GraphPad Prism 8 software.
# PRMT4 = PRMT4 (Homo sapiens, UniProt Q86X55); assay: Off-target methyltransferase profiling (MTase-Glo); format: biochemical
# Procedure: as §1, §2
# EZH2 [Y641N] = EZH2 [Y641N] (Homo sapiens, UniProt Q15910, Y641N); assay: Off-target methyltransferase profiling (MTase-Glo); format: biochemical
# Procedure: as §1, §2
# SUV39H1 = SUV39H1 (Homo sapiens, UniProt O43463); assay: Off-target methyltransferase profiling (MTase-Glo); format: biochemical
# Procedure: as §1, §2
# MLL3 = MLL3 (Homo sapiens, UniProt Q8NEZ4); assay: Off-target methyltransferase profiling (MTase-Glo); format: biochemical
# Procedure: as §1, §2
# PRMT8 = PRMT8 (Homo sapiens, UniProt Q9NR22); assay: Off-target methyltransferase profiling (MTase-Glo); format: biochemical
# Procedure: as §1, §2
# METTL3/14 = METTL3/14 (Homo sapiens, UniProt Q86U44); assay: Off-target methyltransferase profiling (MTase-Glo); format: biochemical
# Procedure: as §1, §2
# EZH2 [A677G] = EZH2 [A677G] (Homo sapiens, UniProt Q15910, A677G); assay: Off-target methyltransferase profiling (MTase-Glo); format: biochemical
# Procedure: as §1, §2
# DNMT1 = DNMT1 (Homo sapiens, UniProt P26358); assay: Off-target methyltransferase profiling (MTase-Glo); format: biochemical
# Procedure: as §1, §2
# EZH2 [Y641H] = EZH2 [Y641H] (Homo sapiens, UniProt Q15910, Y641H); assay: Off-target methyltransferase profiling (MTase-Glo); format: biochemical
# Procedure: as §1, §2
# NSD2 = NSD2 (Homo sapiens, UniProt O96028); assay: Off-target methyltransferase profiling (MTase-Glo); format: biochemical
# Procedure: as §1, §2
# NSD3 = NSD3 (Homo sapiens, UniProt Q9BZ95); assay: Off-target methyltransferase profiling (MTase-Glo); format: biochemical
# Procedure: as §1, §2
# GLP = GLP (Homo sapiens, UniProt Q9H9B1); assay: Off-target methyltransferase profiling (MTase-Glo); format: biochemical
# Procedure: as §1, §2
# SETD1A = SETD1A (Homo sapiens, UniProt O15047); assay: Off-target methyltransferase profiling (MTase-Glo); format: biochemical
# Procedure: as §1, §2
# PRMT6 = PRMT6 (Homo sapiens, UniProt Q96LA8); assay: Off-target methyltransferase profiling (MTase-Glo); format: biochemical
# Procedure: as §1, §2
# EZH2 [Y641F] = EZH2 [Y641F] (Homo sapiens, UniProt Q15910, Y641F); assay: Off-target methyltransferase profiling (MTase-Glo); format: biochemical
# Procedure: as §1, §2
# EZH2 [A738T] = EZH2 [A738T] (Homo sapiens, UniProt Q15910, A733T); assay: Off-target methyltransferase profiling (MTase-Glo); format: biochemical
# Procedure: as §1, §2
# SUV420H1 = SUV420H1 (Homo sapiens, UniProt Q4FZB7); assay: Off-target methyltransferase profiling (MTase-Glo); format: biochemical
# Procedure: as §1, §2
# EZH2 = EZH2 (Homo sapiens, UniProt Q15910); assay: Off-target methyltransferase profiling (MTase-Glo); format: biochemical
# Procedure: as §1, §2
# SETD1B = SETD1B (Homo sapiens, UniProt Q9UPS6); assay: Off-target methyltransferase profiling (MTase-Glo); format: biochemical
# Procedure: as §1, §2
# EZH1 = EZH1 (Homo sapiens, UniProt Q92800); assay: Off-target methyltransferase profiling (MTase-Glo); format: biochemical
# Procedure: as §1, §2
# Sequence of EZH2 (Q15910 whole entry, species assumed): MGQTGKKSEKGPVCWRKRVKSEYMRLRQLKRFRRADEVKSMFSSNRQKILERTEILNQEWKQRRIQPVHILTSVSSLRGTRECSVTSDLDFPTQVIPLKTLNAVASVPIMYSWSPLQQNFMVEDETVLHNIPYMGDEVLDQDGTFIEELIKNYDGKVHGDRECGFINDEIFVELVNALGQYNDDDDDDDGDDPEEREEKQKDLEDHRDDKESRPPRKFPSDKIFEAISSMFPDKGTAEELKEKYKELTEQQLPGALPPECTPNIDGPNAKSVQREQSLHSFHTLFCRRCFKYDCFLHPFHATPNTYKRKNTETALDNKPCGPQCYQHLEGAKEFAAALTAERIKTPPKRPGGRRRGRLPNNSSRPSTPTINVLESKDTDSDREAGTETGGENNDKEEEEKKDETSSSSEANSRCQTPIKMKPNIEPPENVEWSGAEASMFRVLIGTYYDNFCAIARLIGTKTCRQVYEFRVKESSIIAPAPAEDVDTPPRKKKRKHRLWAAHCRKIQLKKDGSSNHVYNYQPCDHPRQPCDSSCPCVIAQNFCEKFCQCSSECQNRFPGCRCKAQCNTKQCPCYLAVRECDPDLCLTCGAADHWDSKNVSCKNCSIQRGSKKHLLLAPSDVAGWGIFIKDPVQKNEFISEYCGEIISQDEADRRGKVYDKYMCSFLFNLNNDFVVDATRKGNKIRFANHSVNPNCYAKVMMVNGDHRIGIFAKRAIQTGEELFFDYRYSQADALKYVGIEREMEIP
# Sequence of EZH2 (O75530 whole entry partner, species assumed): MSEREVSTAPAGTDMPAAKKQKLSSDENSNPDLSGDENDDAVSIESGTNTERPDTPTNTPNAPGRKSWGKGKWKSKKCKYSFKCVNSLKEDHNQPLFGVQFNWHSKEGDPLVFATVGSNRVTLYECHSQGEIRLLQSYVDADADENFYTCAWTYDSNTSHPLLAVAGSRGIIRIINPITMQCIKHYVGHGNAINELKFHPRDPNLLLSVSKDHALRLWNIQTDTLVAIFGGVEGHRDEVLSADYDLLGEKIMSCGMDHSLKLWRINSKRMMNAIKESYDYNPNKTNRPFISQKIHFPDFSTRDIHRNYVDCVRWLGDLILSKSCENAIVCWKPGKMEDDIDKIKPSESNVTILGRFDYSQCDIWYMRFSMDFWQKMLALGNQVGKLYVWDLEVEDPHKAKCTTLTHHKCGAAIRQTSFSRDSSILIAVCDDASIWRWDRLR
# Sequence of EZH2 (Q15022 whole entry partner, species assumed): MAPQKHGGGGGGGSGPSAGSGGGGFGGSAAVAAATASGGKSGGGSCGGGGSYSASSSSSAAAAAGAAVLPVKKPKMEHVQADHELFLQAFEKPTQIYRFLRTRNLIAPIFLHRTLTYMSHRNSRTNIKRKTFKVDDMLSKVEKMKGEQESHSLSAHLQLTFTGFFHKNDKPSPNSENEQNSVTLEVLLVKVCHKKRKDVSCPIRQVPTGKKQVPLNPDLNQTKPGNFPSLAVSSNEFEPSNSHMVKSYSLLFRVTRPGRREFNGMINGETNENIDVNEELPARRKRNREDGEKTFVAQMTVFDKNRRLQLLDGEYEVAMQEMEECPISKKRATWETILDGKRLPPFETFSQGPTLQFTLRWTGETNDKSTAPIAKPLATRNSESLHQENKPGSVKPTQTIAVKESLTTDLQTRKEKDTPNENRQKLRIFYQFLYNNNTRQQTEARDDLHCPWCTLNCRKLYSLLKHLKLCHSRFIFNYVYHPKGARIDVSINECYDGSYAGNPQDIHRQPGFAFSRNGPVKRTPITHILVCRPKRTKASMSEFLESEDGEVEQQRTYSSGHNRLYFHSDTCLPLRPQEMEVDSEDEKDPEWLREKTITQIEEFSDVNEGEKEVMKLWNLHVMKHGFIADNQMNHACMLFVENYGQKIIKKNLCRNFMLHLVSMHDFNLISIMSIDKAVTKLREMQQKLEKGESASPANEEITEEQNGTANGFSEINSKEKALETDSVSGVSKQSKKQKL
# Sequence of EZH2 (Q09028 whole entry partner, species assumed): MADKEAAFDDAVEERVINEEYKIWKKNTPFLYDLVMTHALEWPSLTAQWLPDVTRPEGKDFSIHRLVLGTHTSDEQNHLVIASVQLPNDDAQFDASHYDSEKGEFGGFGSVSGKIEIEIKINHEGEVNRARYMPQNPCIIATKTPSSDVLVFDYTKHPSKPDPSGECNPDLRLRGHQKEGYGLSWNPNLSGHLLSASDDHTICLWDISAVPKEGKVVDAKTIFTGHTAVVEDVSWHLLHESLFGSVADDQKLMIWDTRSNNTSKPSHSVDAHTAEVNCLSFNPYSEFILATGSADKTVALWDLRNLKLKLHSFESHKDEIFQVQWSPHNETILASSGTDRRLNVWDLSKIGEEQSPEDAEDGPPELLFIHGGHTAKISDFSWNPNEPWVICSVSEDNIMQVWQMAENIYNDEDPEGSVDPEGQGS
# Sequence of GLP (Q9H9B1 whole entry): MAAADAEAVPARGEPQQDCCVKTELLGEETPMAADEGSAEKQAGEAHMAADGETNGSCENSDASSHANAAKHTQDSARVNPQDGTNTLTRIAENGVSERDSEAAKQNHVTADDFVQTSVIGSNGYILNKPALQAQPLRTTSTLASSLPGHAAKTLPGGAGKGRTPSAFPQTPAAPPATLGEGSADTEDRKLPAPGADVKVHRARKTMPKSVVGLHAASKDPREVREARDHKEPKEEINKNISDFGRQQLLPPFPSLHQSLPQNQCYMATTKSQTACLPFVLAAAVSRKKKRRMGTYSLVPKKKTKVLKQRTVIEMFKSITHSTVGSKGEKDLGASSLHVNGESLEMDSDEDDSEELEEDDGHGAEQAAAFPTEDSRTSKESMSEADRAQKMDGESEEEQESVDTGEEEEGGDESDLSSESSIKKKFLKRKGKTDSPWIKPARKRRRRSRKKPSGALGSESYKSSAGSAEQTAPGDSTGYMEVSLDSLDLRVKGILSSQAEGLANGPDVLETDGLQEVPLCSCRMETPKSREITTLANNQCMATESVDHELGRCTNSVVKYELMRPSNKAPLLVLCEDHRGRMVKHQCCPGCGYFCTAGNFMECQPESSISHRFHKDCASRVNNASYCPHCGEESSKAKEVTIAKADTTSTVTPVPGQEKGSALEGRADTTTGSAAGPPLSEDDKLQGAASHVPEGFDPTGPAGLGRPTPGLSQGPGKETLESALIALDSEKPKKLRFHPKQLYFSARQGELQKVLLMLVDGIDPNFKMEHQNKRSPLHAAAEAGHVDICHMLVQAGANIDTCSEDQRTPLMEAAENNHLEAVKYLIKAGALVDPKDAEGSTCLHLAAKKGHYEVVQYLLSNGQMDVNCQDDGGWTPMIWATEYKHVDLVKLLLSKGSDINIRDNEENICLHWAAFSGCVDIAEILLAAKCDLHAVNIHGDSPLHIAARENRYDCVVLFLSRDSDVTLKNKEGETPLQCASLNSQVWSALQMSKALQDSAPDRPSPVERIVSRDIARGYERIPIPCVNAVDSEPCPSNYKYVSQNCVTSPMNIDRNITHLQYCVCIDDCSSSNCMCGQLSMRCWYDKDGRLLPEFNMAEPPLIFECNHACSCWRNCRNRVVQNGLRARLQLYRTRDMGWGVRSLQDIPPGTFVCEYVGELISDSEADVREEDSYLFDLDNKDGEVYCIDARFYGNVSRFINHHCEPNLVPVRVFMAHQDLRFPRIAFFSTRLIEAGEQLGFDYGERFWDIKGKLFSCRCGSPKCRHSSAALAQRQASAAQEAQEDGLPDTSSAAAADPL
# Sequence of NSD3 (Q9BZ95 whole entry, species assumed): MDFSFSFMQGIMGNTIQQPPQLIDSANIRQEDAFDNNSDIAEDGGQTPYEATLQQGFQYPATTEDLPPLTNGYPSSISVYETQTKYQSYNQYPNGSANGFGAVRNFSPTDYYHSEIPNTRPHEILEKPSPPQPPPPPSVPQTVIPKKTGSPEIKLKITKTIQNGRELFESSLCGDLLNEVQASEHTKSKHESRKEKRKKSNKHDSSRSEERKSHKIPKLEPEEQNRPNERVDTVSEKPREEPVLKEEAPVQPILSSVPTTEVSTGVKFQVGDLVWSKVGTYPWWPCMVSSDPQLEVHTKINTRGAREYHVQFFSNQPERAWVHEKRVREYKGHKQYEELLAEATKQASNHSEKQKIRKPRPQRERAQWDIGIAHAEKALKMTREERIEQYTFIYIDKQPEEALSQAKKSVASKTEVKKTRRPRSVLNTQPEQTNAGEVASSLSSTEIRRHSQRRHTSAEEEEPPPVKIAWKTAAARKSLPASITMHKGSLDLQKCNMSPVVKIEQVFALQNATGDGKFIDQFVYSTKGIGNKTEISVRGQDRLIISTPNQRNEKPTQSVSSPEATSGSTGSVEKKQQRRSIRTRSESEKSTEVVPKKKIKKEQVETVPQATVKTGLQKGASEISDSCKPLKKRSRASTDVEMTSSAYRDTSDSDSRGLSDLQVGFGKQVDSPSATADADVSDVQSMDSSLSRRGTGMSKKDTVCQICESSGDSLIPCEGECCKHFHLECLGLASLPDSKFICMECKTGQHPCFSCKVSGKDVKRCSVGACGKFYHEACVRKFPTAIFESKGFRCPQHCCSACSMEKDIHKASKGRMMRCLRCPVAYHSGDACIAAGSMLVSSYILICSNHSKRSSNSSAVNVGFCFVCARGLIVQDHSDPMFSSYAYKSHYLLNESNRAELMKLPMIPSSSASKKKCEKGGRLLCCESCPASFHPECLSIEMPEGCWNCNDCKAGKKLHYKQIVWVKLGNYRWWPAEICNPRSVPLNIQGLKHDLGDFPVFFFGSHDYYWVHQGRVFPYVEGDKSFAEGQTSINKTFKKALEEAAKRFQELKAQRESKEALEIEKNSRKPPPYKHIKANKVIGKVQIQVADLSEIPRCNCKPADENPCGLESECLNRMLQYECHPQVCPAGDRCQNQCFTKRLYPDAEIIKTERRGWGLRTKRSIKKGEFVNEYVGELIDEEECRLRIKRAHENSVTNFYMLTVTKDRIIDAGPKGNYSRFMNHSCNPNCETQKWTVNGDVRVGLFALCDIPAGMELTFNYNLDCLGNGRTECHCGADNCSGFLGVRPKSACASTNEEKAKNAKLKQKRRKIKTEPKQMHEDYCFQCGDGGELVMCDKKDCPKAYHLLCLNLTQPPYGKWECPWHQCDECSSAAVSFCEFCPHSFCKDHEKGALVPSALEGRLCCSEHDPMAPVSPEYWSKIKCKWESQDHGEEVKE
compound,measurement,setting,value
"Cc1ccc(Nc2ncc3c(n2)N(C)C(=O)N(c2cccc(N)c2)C3)cn1 [LZQ-02-023-01, Three‐(3‐aminophenyl)‐1‐methyl‐7‐((6‐methylpyridin‐3‐yl)amino)‐3,4‐dihydropyrimido [4,5‐d] pyrimidin‐2 (1H)‐one]",Growth of xenografts derived from MKN45 cells,MKN45 xenografts,significant reduction
same,"Ki-67 expression, PIAS3-K442 methylation and MITF in xenografts",MKN45 xenografts,significantly decreased
same,IC50,PRMT5,13 µM
same,IC50,PRMT4,19.2 µM
same,IC50,EZH2 [Y641N],12.4 µM
same,IC50,SUV39H1,18.6 µM
same,IC50,MLL3,9.47 µM
same,IC50,PRMT8,26.9 µM
same,IC50,METTL3/14,16.8 µM
same,IC50,EZH2 [A677G],13.7 µM
same,IC50,DNMT1,23.8 µM
same,IC50,EZH2 [Y641H],3.46 µM
same,IC50,NSD2,9.53 µM
same,IC50,NSD3,7.36 µM
same,IC50,GLP,23.9 µM
same,IC50,SETD1A,18.8 µM
same,IC50,PRMT6,11 µM
same,IC50,EZH2 [Y641F],2.94 µM
same,IC50,EZH2 [A738T],7.47 µM
same,IC50,SUV420H1,13.3 µM
same,IC50,EZH2,14.7 µM
same,IC50,SETD1B,8.97 µM
same,IC50,EZH1,28.9 µM
